# Data reported in the NIST ThermoML archive (doi:10.1016/j.jct.2009.03.005).
# ± gives the expanded uncertainty stated by the source.
# Experiment: wn = mass fraction of the nth substance listed
# Conditions: 298.15 K, 101 kPa, Liquid; for viscosity: Capillary tube (Ostwald / Ubbelohde) method; for mass density: Pycnometric method
compound,measurement,setting,value
C[S+](C)[O-] [dimethyl sulfoxide] + CC#N,viscosity,w1 = 0.2,0.4196 ± 0.017 mPa·s
same,viscosity,w1 = 0.4,0.5249 ± 0.021 mPa·s
same,viscosity,w1 = 0.6,0.7147 ± 0.029 mPa·s
same,mass density,w1 = 0.2,829.3 ± 0.4 kg/m3
same,mass density,w1 = 0.4,883.3 ± 0.4 kg/m3
same,mass density,w1 = 0.6,945.6 ± 0.5 kg/m3
